The target in this assay is IDH1 R132H (Homo sapiens (Human), UniProt O75874, R132H). Briefly: Assays for IDH1 R132H Inhibitors (NADPH/aKG, resazurin detection). The class given is biochemical. As to conditions: IDH1 R132H enzyme, Table 2; read-out: IDHR132H Activity. How it is done: Assays were conducted in a volume of […] assay buffer (150 mM NaCl, 10 mM MgCl2, 20 mM Tris pH 7.5, 0.03% bovine serum albumin) as follows in a standard 384-well plate: To 25 ul of substrate mix (8 uM NADPH, 2 mM aKG), 1 μl of test compound was added in DMSO. […] The reaction was incubated for 50 minutes at room temperature, then 25 μl of detection mix (30 μM resazurin, […]) was added and the mixture further incubated for 5 minutes at room temperature.
Chain of IDH1 R132H (O75874 whole entry R132H): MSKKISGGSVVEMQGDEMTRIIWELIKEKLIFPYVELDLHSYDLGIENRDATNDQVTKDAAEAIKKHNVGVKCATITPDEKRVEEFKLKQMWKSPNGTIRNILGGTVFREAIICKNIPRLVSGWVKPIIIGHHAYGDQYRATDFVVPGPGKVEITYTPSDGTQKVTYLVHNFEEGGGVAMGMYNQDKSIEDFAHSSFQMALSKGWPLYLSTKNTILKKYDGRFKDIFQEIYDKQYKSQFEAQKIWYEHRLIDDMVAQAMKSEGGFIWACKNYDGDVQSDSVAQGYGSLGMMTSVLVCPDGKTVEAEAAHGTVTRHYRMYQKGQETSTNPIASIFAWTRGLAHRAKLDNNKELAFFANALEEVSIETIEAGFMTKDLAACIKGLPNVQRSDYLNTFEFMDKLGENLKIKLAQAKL
Background: Alamar Blue is a resazurin reagent that responds to reducing activity.

On to `C=CCNC(=O)N1CCN(c2nc(C3CCCCC3)c3c(c2C#N)CCOC3)CC1C(=O)OCC` (centres unmarked) [Compound 330, ethyl 1-(allylcarbamoyl)-4-(5-cyano-8-cyclohexyl-3,4-dihydro-1H-pyrano[3,4-c]pyridin-6-yl)-piperazine-2-carboxylate], for which the IC50 lay within 1 to 10 µM.

Consider `COC(=O)C1CN(c2nc(C(C)C)c3c(c2C#N)CC(C)(C)OC3)CCN1C(=O)c1ccoc1` (centres unmarked) [Compound 393, methyl 4-(5-cyano-8-isopropyl-3,3-dimethyl-3,4-dihydro-1H-pyrano[3,4-c]pyridin-6-yl)-1-(furan-3-carbonyl)piperazine-2-carboxylate], for which the IC50 was 0.5 to 1 µM.

`CC(C)c1nc(N2CCN(C(=O)c3ccc(Cl)c(Cl)c3)CC2)c(C#N)c2c1COCC2` [Compound 105, 6-(4-(3,4-dichlorobenzoyl)piperazin-1-yl)-8-isopropyl-3,4-dihydro-1H-pyrano[3,4-c]pyridine-5-carbonitrile]: the IC50 was 1 to 10 µM.

Turning to `Cc1ccoc1C(=O)N1CCN(c2nc(C3CCCCC3)c3c(c2C#N)CCOC3)CC1` [Compound 129, 8-cyclohexyl-6-(4-(3-methylfuran-2-carbonyl)piperazin-1-yl)-3,4-dihydro-1H-pyrano[3,4-c]pyridine-5-carbonitrile], the IC50 was 1 to 10 µM.

For `CCc1nc(N2CCN(C(=O)CCOC)[C@H](C(C)C)C2)c(C#N)c2c1COC(C)(C)C2` [Compound 413, (R)-8-ethyl-6-(3-isopropyl-4-(3-methoxypropanoyl)piperazin-1-yl)-3,3-dimethyl-3,4-dihydro-1H-pyrano[3,4-c]pyridine-5-carbonitrile], the IC50 is less than 0.5 µM.

On to `COc1ccc(NC(=O)N2CCN(c3nc(C4CCCCC4)c4c(c3C#N)CCOC4)C[C@H]2C)cc1` [Compound 299, (R)-4-(5-cyano-8-cyclohexyl-3,4-dihydro-1H-pyrano[3,4-c]pyridin-6-yl)-N-(4-methoxyphenyl)-2-methylpiperazine-1-carboxamide], for which the IC50 is 1 to 10 µM.

For `CCOC(=O)C1CN(c2nc(C(C)C)c3c(c2C#N)CC(C)(C)OC3)CCN1C(=O)OCCOC` (centres unmarked) [Compound 329, 2-ethyl 1-(2-methoxyethyl) 4-(5-cyano-8-isopropyl-3,3-dimethyl-3,4-dihydro-1H-pyrano[3,4-c]pyridin-6-yl)piperazine-1,2-dicarboxylate], the IC50 lay in the range of 1 to 10 µM.

Turning to `C[C@@H]1CN(c2nc(C3CCCCC3)c3c(c2C#N)CCOC3)CCN1S(C)(=O)=O` [Compound 336, (R)-8-cyclohexyl-6-(3-methyl-4-(methylsulfonyl)piperazin-1-yl)-3,4-dihydro-1H-pyrano[3,4-c]pyridine-5-carbonitrile], the IC50 lay in the range of 1 to 10 µM.

Turning to `COc1ccc(NC(=O)N2CCN(c3nc(C4CC4)c4c(c3C#N)CC(C)(C)OC4)C[C@H]2C(C)C)cc1` [Compound 316, (R)-4-(5-cyano-8-cyclopropyl-3,3-dimethyl-3,4-dihydro-1H-pyrano[3,4-c]pyridin-6-yl)-2-isopropyl-N-(4-methoxyphenyl)piperazine-1-carboxamide], the IC50 lay in the range of 1 to 10 µM.

As for `CCC(=O)N1CCN(c2nc(C3CC3)c3c(c2C#N)CC(C)(C)OC3)C[C@H]1C(C)C` [Compound 354, (R)-8-cyclopropyl-6-(3-isopropyl-4-propionylpiperazin-1-yl)-3,3-dimethyl-3,4-dihydro-1H-pyrano[3,4-c]pyridine-5-carbonitrile], the IC50 was less than 0.5 µM.

`C[C@@H]1CN(c2nc(C3CC3)c3c(c2C#N)CC(C)(C)OC3)[C@@H](C)CN1C(=O)c1ccoc1` [Compound 308, 8-cyclopropyl-6-((2S,5R)-4-(furan-3-carbonyl)-2,5-dimethylpiperazin-1-yl)-3,3-dimethyl-3,4-dihydro-1H-pyrano[3,4-c]pyridine-5-carbonitrile]: the IC50 lay within 1 to 10 µM.

As for `COCCN1CCN(c2nc(C3CC3)c3c(c2C#N)CC(C)(C)OC3)C[C@H]1C(C)C` [Compound 369, (R)-8-cyclopropyl-6-(3-isopropyl-4-(2-methoxyethyl)piperazin-1-yl)-3,3-dimethyl-3,4-dihydro-1H-pyrano[3,4-c]pyridine-5-carbonitrile], the IC50 is 1 to 10 µM.

In the case of `CC(C)[C@@H]1CN(c2nc(C3CCC3)c3c(c2C#N)CC(C)(C)OC3)CCN1C(=O)Cc1cccs1` [Compound 289, (R)-8-cyclobutyl-6-(3-isopropyl-4-(2-(thiophen-2-yl)acetyl)piperazin-1-yl)-3,3-dimethyl-3,4-dihydro-1H-pyrano[3,4-c]pyridine-5-carbonitrile], the IC50 was less than 0.5 µM.

`C[C@@H]1CN(c2nc(C3CCCC3)c3c(c2C#N)CCOC3)C[C@H](C)N1C(=O)NC1CCCCC1` [Compound 127, (2S,6R)-4-(5-cyano-8-cyclopentyl-3,4-dihydro-1H-pyrano[3,4-c]pyridin-6-yl)-N-cyclohexyl-2,6-dimethylpiperazine-1-carboxamide]: the IC50 lay in the range of 1 to 10 µM.

Take `C[C@@H]1CN(c2nc(C3CCCCC3)c3c(c2C#N)CCOC3)CCN1C(=O)Cc1cccs1` [Compound 185, (R)-8-cyclohexyl-6-(3-methyl-4-(2-(thiophen-2-yl)acetyl)piperazin-1-yl)-3,4-dihydro-1H-pyrano[3,4-c]pyridine-5-carbonitrile]: the IC50 was 1 to 10 µM.

`N#Cc1c(N2CCN(C(=O)c3ccc4cc[nH]c4c3)CC2)nc(C2CCCCC2)c2c1CCOC2` [Compound 123, 6-(4-(1H-indole-6-carbonyl)piperazin-1-yl)-8-cyclohexyl-3,4-dihydro-1H-pyrano[3,4-c]pyridine-5-carbonitrile]: the IC50 lay within 1 to 10 µM.

On to `CC(C)c1nc(N2CCN(C(=O)Cc3ccccc3)CC2)c(C#N)c2c1COC(C)(C)C2` [Compound 144, 8-isopropyl-3,3-dimethyl-6-(4-(2-phenylacetyl)piperazin-1-yl)-3,4-dihydro-1H-pyrano[3,4-c]pyridine-5-carbonitrile], for which the IC50 lay within 1 to 10 µM.

As to `C[C@@H]1CN(c2nc(C3CCCCC3)c3c(c2C#N)CC(C)(C)OC3)CCN1C(=O)c1ccoc1` [Compound 151, (R)-8-cyclohexyl-6-(4-(furan-3-carbonyl)-3-methylpiperazin-1-yl)-3,3-dimethyl-3,4-dihydro-1H-pyrano[3,4-c]pyridine-5-carbonitrile], the IC50 is 1 to 10 µM.

For the compound `CC(C)c1nc(N2CCN(C(=O)c3cocn3)[C@H](C(C)C)C2)c(C#N)c2c1COC(C)(C)C2` [Compound 212, (R)-8-isopropyl-6-(3-isopropyl-4-(oxazole-4-carbonyl)piperazin-1-yl)-3,3-dimethyl-3,4-dihydro-1H-pyrano[3,4-c]pyridine-5-carbonitrile], the IC50 was in the range of 0.5 to 1 µM.

In the case of `Cc1ccc(NC(=O)N2CCN(c3nc(C4CCCCC4)c4c(c3C#N)CCOC4)C[C@H]2C)cc1` [Compound 280, (R)-4-(5-cyano-8-cyclohexyl-3,4-dihydro-1H-pyrano[3,4-c]pyridin-6-yl)-2-methyl-N-p-tolylpiperazine-1-carboxamide], the IC50 was in the range of 1 to 10 µM.

Take `C[C@H]1CN(C(=O)c2ccco2)CCN1c1nc(C2CC2)c2c(c1C#N)CC(C)(C)OC2` [Compound 203, (S)-8-cyclopropyl-6-(4-(furan-2-carbonyl)-2-methylpiperazin-1-yl)-3,3-dimethyl-3,4-dihydro-1H-pyrano[3,4-c]pyridine-5-carbonitrile]: the IC50 was 1 to 10 µM.

`CC(C)c1nc(N2CCN(C(=O)C(=O)c3ccccc3)[C@H](C)C2)c(C#N)c2c1COC(C)(C)C2` [Compound 157, (R)-8-isopropyl-3,3-dimethyl-6-(3-methyl-4-(2-oxo-2-phenylacetyl)piperazin-1-yl)-3,4-dihydro-1H-pyrano[3,4-c]pyridine-5-carbonitrile]: the IC50 was in the range of 1 to 10 µM.

Consider `CC[C@@H]1CN(c2nc(C(C)C)c3c(c2C#N)CC(C)(C)OC3)CCN1C(=O)c1ccoc1` [Compound 205, (R)-6-(3-ethyl-4-(furan-3-carbonyl)piperazin-1-yl)-8-isopropyl-3,3-dimethyl-3,4-dihydro-1H-pyrano[3,4-c]pyridine-5-carbonitrile], for which the IC50 was less than 0.5 µM.

Turning to `COCCC(=O)N1C[C@H](C)N(c2nc(C3CC3)c3c(c2C#N)CC(C)(C)OC3)C[C@H]1C` [Compound 310, 8-cyclopropyl-6-((2S,5R)-4-(3-methoxypropanoyl)-2,5-dimethylpiperazin-1-yl)-3,3-dimethyl-3,4-dihydro-1H-pyrano[3,4-c]pyridine-5-carbonitrile], the IC50 lay within 1 to 10 µM.

`COC(=O)CC(=O)N1CCN(c2nc(C3CC3)c3c(c2C#N)CC(C)(C)OC3)C[C@H]1C(C)C` [Compound 409, (R)-methyl 3-(4-(5-cyano-8-cyclopropyl-3,3-dimethyl-3,4-dihydro-1H-pyrano[3,4-c]pyridin-6-yl)-2-isopropylpiperazin-1-yl)-3-oxopropanoate]: the IC50 is less than 0.5 µM.

Turning to `C=CCNC(=O)N1CCN(c2nc(C3CCCCC3)c3c(c2C#N)CCOC3)C[C@H]1C` [Compound 334, (R)—N-allyl-4-(5-cyano-8-cyclohexyl-3,4-dihydro-1H-pyrano[3,4-c]pyridin-6-yl)-2-methylpiperazine-1-carboxamide], the IC50 was in the range of 1 to 10 µM.

For `CC(C)[C@@H]1CN(c2nc(C3CC3)c3c(c2C#N)CC(C)(C)OC3)CCN1C(=O)Cn1cccn1` [Compound 325, (R)-6-(4-(2-(1H-pyrazol-1-yl)acetyl)-3-isopropylpiperazin-1-yl)-8-cyclopropyl-3,3-dimethyl-3,4-dihydro-1H-pyrano[3,4-c]pyridine-5-carbonitrile], the IC50 is 0.5 to 1 µM.

As for `C=CCNC(=O)N1CCN(c2nc(C3CC3)c3c(c2C#N)CC(C)(C)OC3)C[C@H]1C(C)C` [Compound 304, (R)—N-allyl-4-(5-cyano-8-cyclopropyl-3,3-dimethyl-3,4-dihydro-1H-pyrano[3,4-c]pyridin-6-yl)-2-isopropylpiperazine-1-carboxamide], the IC50 was less than 0.5 µM.

Turning to `Cc1cc(C(=O)N2CCN(c3nc(C4CC4)c4c(c3C#N)CC(C)(C)OC4)C[C@H]2C)c(C)o1` [Compound 244], the IC50 lay in the range of 1 to 10 µM.

For the origin of these results see US9662327B2 (AGIOS PHARMACEUTICALS, INC, priority 2011, dated 2017).
